In patent publication US5789434A, “Derivatives of substituted 4-biarylbutyric acid as matrix metalloprotease inhibitors” (priority 1995, dated 1998) one finds IC50 and inhibition data, which are given here for 20 molecules.

The IC50 is the concentration that gives 50% inhibition. What is called inhibition is the percentage by which the read-out fell short of the control.

Type in all cases: biochemical
The target of assay [1] is T1, MMP-9 (Homo sapiens, UniProt P14780).
T1 construct: from tissue; host or cells: human polymorphonuclear leukocytes (PMN) from whole blood (New York Blood Center), PMA-stimulated supernatant
As to the kind of experiment: Automated MMP Profiling Assay, MMP-9 fluorogenic. Particulars: for IC50: 96-well automated, P218.

Assay [2] has as its target T2, MMP-2 (Homo sapiens, UniProt P08253).
T2 sequence (P08253 110-660): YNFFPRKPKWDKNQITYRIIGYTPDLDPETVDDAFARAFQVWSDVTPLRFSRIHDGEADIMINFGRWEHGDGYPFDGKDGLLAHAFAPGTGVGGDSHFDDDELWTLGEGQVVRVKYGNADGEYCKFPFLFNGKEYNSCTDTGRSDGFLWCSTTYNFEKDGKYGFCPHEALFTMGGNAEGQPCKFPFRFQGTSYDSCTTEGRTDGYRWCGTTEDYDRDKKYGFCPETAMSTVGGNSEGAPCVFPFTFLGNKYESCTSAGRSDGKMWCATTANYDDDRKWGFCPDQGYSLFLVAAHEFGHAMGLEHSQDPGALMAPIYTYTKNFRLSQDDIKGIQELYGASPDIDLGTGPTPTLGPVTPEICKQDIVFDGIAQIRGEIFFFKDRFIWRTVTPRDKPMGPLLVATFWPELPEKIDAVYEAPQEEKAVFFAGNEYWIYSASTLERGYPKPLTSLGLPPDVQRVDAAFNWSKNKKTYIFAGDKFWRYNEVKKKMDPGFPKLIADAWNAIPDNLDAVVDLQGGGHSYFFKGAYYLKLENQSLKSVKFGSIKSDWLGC
As to the kind of experiment: Automated MMP Profiling Assay, MMP-2 fluorogenic. The conditions noted are these: for IC50: 96-well automated, P218, read-out: MMP-2 Fluorogenic IC50 (profiling).

In assay [3] the target is T3, MMP-3 (Homo sapiens, UniProt P08254).
T3 construct: Truncated Prostromelysin-257 was expressed in a soluble form in E.coli; made in house; host or cells: E. coli
Put plainly: Automated MMP Profiling Assay, MMP-3 fluorogenic. Particulars: for IC50: 96-well automated, P218. The source says:
This assay with each invention compound was run with the three enzymes MMP-3, MMP-9 and MMP-2 in parallel as adapted for a 96-well microtitre plate using a Hamilton A® workstation.

T3 sequence (P08254 100-274 limits assumed): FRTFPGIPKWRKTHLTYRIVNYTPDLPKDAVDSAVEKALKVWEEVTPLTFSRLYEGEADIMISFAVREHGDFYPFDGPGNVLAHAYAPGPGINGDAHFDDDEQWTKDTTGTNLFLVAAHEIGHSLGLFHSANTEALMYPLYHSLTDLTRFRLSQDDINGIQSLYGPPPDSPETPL
T1 sequence (P14780 107-707 limits assumed): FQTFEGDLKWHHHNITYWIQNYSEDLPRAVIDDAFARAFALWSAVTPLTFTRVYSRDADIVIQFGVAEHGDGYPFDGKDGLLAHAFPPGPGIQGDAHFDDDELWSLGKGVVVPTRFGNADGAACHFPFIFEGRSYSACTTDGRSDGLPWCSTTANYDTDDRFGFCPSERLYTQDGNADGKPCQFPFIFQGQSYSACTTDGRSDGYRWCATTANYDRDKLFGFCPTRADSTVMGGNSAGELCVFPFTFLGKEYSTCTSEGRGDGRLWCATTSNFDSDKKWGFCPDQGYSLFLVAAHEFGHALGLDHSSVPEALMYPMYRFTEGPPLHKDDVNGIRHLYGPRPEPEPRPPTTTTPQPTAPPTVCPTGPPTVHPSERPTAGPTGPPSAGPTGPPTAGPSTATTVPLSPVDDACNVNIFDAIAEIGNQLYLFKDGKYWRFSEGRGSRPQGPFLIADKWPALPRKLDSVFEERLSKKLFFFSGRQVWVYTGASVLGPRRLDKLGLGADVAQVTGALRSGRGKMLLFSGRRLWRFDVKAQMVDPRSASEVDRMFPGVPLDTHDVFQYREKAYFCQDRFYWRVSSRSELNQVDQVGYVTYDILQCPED

`O=C(CC(CCc1ccccc1)C(=O)O)c1ccc(-c2ccc(OCc3ccccc3)cc2)cc1` (stereo not drawn) [Example 161, [1,1'-Biphenyl]-4-butanoic acid, γ-oxo-α-(2-phenylethyl)-4'-(phenylmethoxy)-]: the values for the IC50 in assay [1], in assay [2] and in assay [3] were 1560 nM, 38 nM and 46 nM, respectively.

Turning to `O=C(O)[C@H]1[C@H](CSc2cccs2)CC[C@@H]1C(=O)c1ccc(-c2ccc(Cl)cc2)cc1` (relative stereo) [Example 369, Cyclopentanecarboxylic acid, 2-[(4'-chloro[1,1'-biphenyl]-4-yl)carbonyl]-5-[(2-thienylthio)methyl]-, (1α,2β,5β)-], the IC50 in assay [1] was found to be 139 nM; in assay [2], 37 nM; in assay [3] it was 54 nM.

Turning to `O=C(CC(CCN1C(=O)c2cc3c(cc2C1=O)OCO3)C(=O)O)c1ccc(-c2ccc(Cl)cc2)cc1` (stereo not drawn) [Example 419, 6H-1,3-Dioxolo[4,5-.function.]isoindole-6-butanoic acid, α-[2-(4'-chloro[1,1'-biphenyl]-4-yl)-2-oxoethyl]-5,7-dihydro-5,7-dioxo-], the IC50 stood at 0.85 nM in assay [1], 31 nM in assay [2] and 6.7 nM in assay [3].

In the case of `O=C(CC(CN1C(=O)c2ccccc2C1=O)C(=O)O)c1ccc(-c2ccc(Cl)cc2)cc1` (stereo not drawn) [Example 276, 2H-Isoindole-2-propanoic acid, α-[2-(4'-chloro[1,1'-biphenyl]-4-yl)-2-oxoethyl]-1,3-dihydro-1,3-dioxo-], the IC50 was 275 nM in assay [1], 39 nM in assay [2] and 262 nM in assay [3].

With `O=C(O)c1ccc(COc2ccc(-c3ccc(C(=O)CC(CCCc4ccccc4)C(=O)O)cc3)cc2)cc1` (stereo not drawn) [Example 113], the IC50 in assay [1] is 1330 nM; in assay [2], 44 nM; in assay [3], 28 nM.

For `O=C(O)C1=CCCC1C(=O)c1ccc(-c2ccc(Cl)cc2)cc1` (stereo not drawn) [Example 439, 1-Cyclopentene-1-carboxylic acid, 5-[(4'-chloro[1,1'-biphenyl]-4-yl)carbonyl]-], the results for the inhibition at 5 µM in assay [1], in assay [2] (at 5 μM) and in assay [3] (at 5 μM) were 3%, 24% and 0%, respectively.

`CCCCNC(=O)c1cccc(CCC(CC(=O)c2ccc(-c3ccc(Cl)cc3)cc2)C(=O)O)c1` (stereo not drawn) [Example 150, [1,1'-Biphenyl]-4-butanoic acid, α-[2-[3-[(butylamino)carbonyl]phenyl]ethyl]-4'-chloro-γ-oxo-]: the 50% inhibitory concentration (IC50) in assay [1] was determined as 957 nM; in assay [2], 201 nM; in assay [3], 371 nM.

In the case of `O=C(CC(CCCc1ccccc1)C(=O)O)c1ccc(-c2ccc(OCc3cccnc3)cc2)cc1` (stereo not drawn) [Example 109, [1,1'-Biphenyl]-4-butanoic acid, γ-oxo-α-(3-phenylpropyl)-4'-(3-pyridinylmethoxy)-], the values for the IC50 in assay [1], in assay [2] and in assay [3] were 1290 nM, 6.6 nM and 28 nM, respectively.

Regarding `O=C(O)[C@H]1[C@H](COCc2ccccc2)CC[C@@H]1C(=O)c1ccc(-c2ccc(Cl)cc2)cc1` (relative stereo) [Example 365, Cyclopentanecarboxylic acid, 2-[(4'-chloro[1,1'-biphenyl]-4-yl)carbonyl]-5-[(phenylmethoxy)methyl]-, (1α,2β,5β)-], the IC50 was 58 nM in assay [1], 13 nM in assay [2] and 27 nM in assay [3].

On to `O=C(CC(CCc1cccc(I)c1)C(=O)O)c1ccc(-c2ccc(OCc3ccccc3)cc2)cc1` (stereo not drawn) [Example 163, [1,1'-Biphenyl]-4-butanoic acid, α-[2-(3-iodophenyl)ethyl]-γ-oxo-4'-(phenylmethoxy)-], for which the inhibition at 5 µM in assay [1] is 18%. The IC50 in assay [2] was 17 nM; in assay [3] it was 64 nM.

With `Cc1cccc(C(=O)OC[C@@H]2CC[C@H](C(=O)c3ccc(-c4ccc(Cl)cc4)cc3)[C@H]2C(=O)O)c1` (relative stereo) [Example 379, Benzoic acid, 3-methyl-, [2-carboxy-3-[(4'-chloro[1,1'-biphenyl]-4-yl)carbonyl]cyclopentyl]methyl ester, (1α,2β,3α)-], the figures for the concentration for half-maximal inhibition (IC50) in assay [1], in assay [2] and in assay [3] were 48 nM, 92 nM and 63 nM, respectively.

Take `O=C(CC(CCN1C(=O)c2cccc3c(Br)ccc(c23)C1=O)C(=O)O)c1ccc(-c2ccc(Cl)cc2)cc1` (stereo not drawn) [Example 418]: the concentration for half-maximal inhibition (IC50) in assay [1] was determined as 89 nM; in assay [2] it was 420 nM; in assay [3] it was 305 nM.

For `COCCCc1ccc(-c2ccc(C(=O)CC(CCCc3ccccc3)C(=O)O)cc2)cc1` (stereo not drawn) [Example 355, [1,1'-Biphenyl]-4-butanoic acid, 4'-(3-methoxypropyl)-γ-oxo-α-(3-phenylpropyl)-], the IC50 in assay [1] is 1080 nM; in assay [2] it was 90 nM; in assay [3], 508 nM.

`CN(C)C(=O)c1cccc(SCC(CC(=O)c2ccc(-c3ccc(Cl)cc3)cc2)C(=O)O)c1` (stereo not drawn) [Example 437, [1,1'-Biphenyl]-4-butanoic acid, 4'-chloro-α-[[[3-[(dimethylamino)carbonyl]phenyl]thio]methyl]-γ-oxo-]: the IC50 in assay [1] was 366 nM; in assay [2], 15 nM; in assay [3], 50 nM.

For the molecule `O=C(O)[C@H]1[C@H](CSc2nc3ccccc3o2)CC[C@@H]1C(=O)c1ccc(-c2ccc(Cl)cc2)cc1` (relative stereo) [Example 384, Cyclopentanecarboxylic acid, 2-[(2-benzoxazolylthio)methyl]-5-[(4'-chloro[1,1'-biphenyl]-4-yl)carbonyl]-, (1α,2β,5β)-], the figures for the IC50 in assay [1], in assay [2] and in assay [3] were 167 nM, 78 nM and 129 nM, respectively.

`COc1ccc(COc2ccc(-c3ccc(C(=O)CC(CCCc4ccccc4)C(=O)O)cc3)cc2)cc1` (stereo not drawn) [Example 105, [1,1'-Biphenyl]-4-butanoic acid, 4'-[(4-methoxyphenyl)methoxy]-γ-oxo-α-(3-phenylpropyl)-] displayed an inhibition at 5 µM in assay [1] of 37%. Moreover, the figures for the IC50 in assay [2] and in assay [3] were 14 nM and 33 nM, respectively.

As for `O=C(O)c1cccc(CCC(CC(=O)c2ccc(-c3ccc(Cl)cc3)cc2)C(=O)O)c1` (stereo not drawn) [Example 148, [1,1'-Biphenyl]-4-butanoic acid, α-[2-(3-carboxyphenyl)ethyl]-4'-chloro-γ-oxo-], the IC50 in assay [1] was determined as 454 nM; in assay [2] it was 54 nM; in assay [3] it was 90 nM.

On to `O=C(O)[C@@H]1[C@@H](C(=O)c2ccc(-c3ccc(Cl)cc3)cc2)CC[C@H]1SCc1ccccc1` (relative stereo) [Example 441, Cyclopentanecarboxylic acid, 2-[(4'-chloro[1,1'-biphenyl]-4-yl)carbonyl]-5-[(phenylmethyl)thio]-, (1α,2β,5β)-], for which the IC50 in assay [1] stood at 149 nM; in assay [2], 27 nM; in assay [3], 38 nM.

Regarding `O=C(O)[C@H]1[C@@H](SCc2ccccc2)CC[C@@H]1C(=O)c1ccc(-c2ccc(Cl)cc2)cc1` (relative stereo) [Example 440, Cyclopentanecarboxylic acid, 2-[(4'-chloro[1,1'-biphenyl]-4-yl)carbonyl]-5-[(phneylmethyl)thio]-, (1α,2β,5α)-], the IC50 is 380 nM in assay [1], 43 nM in assay [2] and 58 nM in assay [3].

For the molecule `CC(C)COc1ccc(-c2ccc(C(=O)CC(CCCc3ccccc3)C(=O)O)cc2)cc1` (stereo not drawn) [Example 94, [1,1'-Biphenyl]-4-butanoic acid, 4'-(2-methylpropoxy)-γ-oxo-α-(3-phenylpropyl)-], the IC50 in assay [1] is 1850 nM; in assay [2], 155 nM; in assay [3] it was 224 nM.
